# How the values were obtained:
# HSC1 [1] = assay: relative IC50 (inflection point of fitted dose-response curve, CellTox-Green cytotoxicity, 72 h; top asymptote may be below 50%); higher = less potent
# How it was run: (§1)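 For 72 h at 37 °C, MPNST cell lines and primary human Schwann cells were exposed in 384-well plates to five 10-fold compound dilutions. CellTox-Green, added before seeding at a final 1:1000 dilution, gave fluorescence from DNA released by disrupted cells. Signals were scaled to vehicle and positive-control wells, cultures failing plate quality control were left out, and four-parameter logistic fits were applied. Relative IC50 and drug sensitivity score were derived from the fits, with IC50 censored at the top concentration.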
# HS-PSS [2] = assay: as above
# How it was run: as §1
# HSC2 [3] = assay: as above
# How it was run: as §1
# STS26T [4] = assay: as above
# How it was run: as §1
# ST8814 [5] = assay: as above
# How it was run: as §1
# HS-PSS [6] = assay: relative IC50 (inflection point of fitted dose-response curve, CellTiter-Glo viability, 72 h; top asymptote may be below 50% inhibition); higher = less potent
# How it was run: (§2)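 MPNST cell lines and primary human Schwann cells were seeded at 750–1000 cells per well into 384-well plates preprinted with each compound at five concentrations in 10-fold steps, then incubated 72 h at 37 °C, 5% CO2. CellTiter-Glo ATP luminescence gave viability, scaled between vehicle and positive-control wells, with duplicates averaged where present. Curves were fitted with a four-parameter logistic model. Percent inhibition refers to the top concentration, while drug sensitivity score and relative IC50, censored at the top concentration, come from these fits.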
# HSC2 [7] = assay: as above
# How it was run: as §2
# YST-1 = assay: as above
# How it was run: as §2
# HS-Sch-2 = assay: as above
# How it was run: as §2
# S462 = assay: as above
# How it was run: as §2
# STS26T [8] = assay: as above
# How it was run: as §2
# HSC1 [9] = assay: as above
# How it was run: as §2
# ST8814 [10] = assay: as above
# How it was run: as §2
SMILES,relative IC50 (HSC1 [1]) [nM],relative IC50 (HS-PSS [2]) [nM],relative IC50 (HSC2 [3]) [nM],relative IC50 (STS26T [4]) [nM],relative IC50 (ST8814 [5]) [nM],relative IC50 (HS-PSS [6]) [nM],relative IC50 (HSC2 [7]) [nM],relative IC50 (YST-1) [nM],relative IC50 (HS-Sch-2) [nM],relative IC50 (S462) [nM],relative IC50 (STS26T [8]) [nM],relative IC50 (HSC1 [9]) [nM],relative IC50 (ST8814 [10]) [nM]
Nc1ncn([C@H]2C[C@H](O)[C@@H](CO)O2)c(=O)n1 [Decitabine],> 10000,> 10000,> 10000,> 10000,> 10000,> 10000,2260,> 10000,782,273,–,–,–
COc1cc2ncnc(Nc3ccc(F)c(Cl)c3)c2cc1NC(=O)/C=C/CN1CCCCC1 [Dacomitinib],> 1000,–,> 1000,> 1000,> 1000,144,–,> 1000,148,–,–,–,–
CNC(=O)c1ccc(N2C(=S)N(c3ccc(C#N)c(C(F)(F)F)c3)C(=O)C23CCC3)cc1F [RD162],> 10000,> 10000,> 10000,> 10000,> 10000,> 10000,> 10000,> 10000,> 10000,> 10000,> 10000,–,–
CNC(=O)c1ccc(N2C(=S)N(c3ccc(C#N)c(C(F)(F)F)c3)C(=O)C2(C)C)cc1F [Enzalutamide],> 10000,> 10000,> 10000,> 10000,> 10000,> 10000,> 10000,> 10000,> 10000,> 10000,> 10000,–,–
COCC1(CO)C(=O)C2CCN1CC2 (centres undefined) [Prima-1 Met],> 10000,–,> 10000,> 10000,> 10000,–,2140,–,–,–,–,572,> 10000
CCC/C=C/C=C/C(=O)O[C@H]1/C(=C/C(=O)OC)C[C@H]2C[C@H]([C@@H](C)O)OC(=O)C[C@H](O)C[C@@H]3C[C@H](OC(C)=O)C(C)(C)[C@](O)(C[C@@H]4C/C(=C/C(=O)OC)C[C@H](/C=C/C(C)(C)[C@]1(O)O2)O4)O3 [Bryostatin 1],> 100,> 100,> 100,> 100,> 100,–,> 100,> 100,0.41,–,–,> 100,> 100
C[C@]12CC[C@H](O)CC1=CC[C@@H]1[C@@H]2CC[C@]2(C)C(c3cccnc3)=CC[C@@H]12 [Abiraterone],> 5000,> 5000,> 5000,> 5000,> 5000,> 5000,–,> 5000,> 5000,–,–,–,> 5000
C[C@@H](Oc1cc(-c2cnn(C3CCNCC3)c2)cnc1N)c1c(Cl)ccc(F)c1Cl [Crizotinib],> 1000,> 1000,> 1000,> 1000,> 1000,367,–,393,–,–,> 1000,–,> 1000
Nc1nc(Cl)nc2c1ncn2[C@H]1C[C@H](O)[C@@H](CO)O1 [Cladribine],350,–,319,–,–,366,174,321,351,–,226,151,–
Nc1cccc2c1C(=O)N(C1CCC(=O)NC1=O)C2=O (centres undefined) [Pomalidomide],> 10000,> 10000,> 10000,> 10000,> 10000,> 10000,> 10000,> 10000,> 10000,–,> 10000,> 10000,> 10000

# — the supplement of paper PMC5579334
